Three molecules from patent US11267831B2, “EF-Tu-binding metal-containing antibiotic” (Ruhr-Universitaet Bochum, priority 2017, dated 2022) can be followed below.

The experiment relates to B. subtilis. Description: Proteome analysis via 2D-PAGE with 35S-methionine labelling of newly synthesized proteins. It counts as cell-based, Bacillus subtilis. The settings on record: 3 μg/ml DS50, 0.15 μg/ml nocathiacin I, 8 μg/ml GE2270 A or 50 μg/ml kirromycin, 15 min. The method, then: B. subtilis was grown to an OD500 of 0.35 in BMM and treated with 3 μg/ml DS50 or 12 μg/ml biotin-DS50 for 15 min or left untreated as control. The following concentrations were used for the reference antibiotics: 0.15 μg/ml nocathiacin I, 8 μg/ml GE2270 A or 50 μg/ml kirromycin. Radioactive labelling of newly synthesized proteins during antibiotic treatment with ^35S-methionine and 2D-PAGE analysis were essentially performed as described^38.
Protein spots were cut out of the gel and decolorized twice in a washing solution (20 mM ammonium bicarbonate, 30% acetonitrile). Disulfide bridges in proteins from gel pieces obtained from 1D-PAGE gels were reduced with 10 mM DTT in wash solution at 60° C. for 45 min. Cysteine alkylation was then performed with 50 mM iodoacetamide (IAA) in a washing solution for 25 min at room temperature in the dark. The gel pieces were washed twice with washing solution for 5 min at room temperature. The reduction and alkylation steps were omitted for samples from 2D-PAGE experiments. […] Gradient for identification of proteins from 1D-PAGE: initial, 0.5% eluant B (0.1% formic acid (FA) in acetonitrile); 1 min, 0.5% eluant B; 45 min, 60% eluant B; 48 min, 90% eluant B; 49 min, 99% eluant B; 51 min, 99% eluant B; 52 min, 0.5% eluant B; 60 min, 0.5% eluant B. 0.1% FA in water served as eluent A. Gradient for the identification of proteins from 2D-PAGE: initial, 0.5% eluent B; 22 min, 50% eluent B; 23 min, 99% eluent B; 26 min, 99% eluent B; 27 min, 0.5% eluent B; 30 min, 0.5% eluent B. Continuous MS^E spectra were recorded in a mass range of 50-1200 m/z and with a scanning time of […] in positive resolution mode with the following settings: Capillary voltage, 1.7 kV; cone voltage, 30 V; source temperature, 100° C.; cone gas flow, 50 l/h; desolvation gas flow, 500 l/h; desolvation temperature, 150° C. […] For protein identification, a database with 4180 proteins of B. subtilis was used (NCBI reference sequence: NC_000964.3, manually added: trypsin, keratin, quantification standard PhosB). […]
In the case of `CNC(=O)C[C@@H]1NC(=O)c2csc(n2)-c2ccc(-c3nc(C4=N[C@H](C(=O)N5CCC[C@H]5C(N)=O)CO4)cs3)nc2-c2csc(n2)-c2csc(n2)[C@H]([C@@H](O)c2ccccc2)NC(=O)CNC(=O)c2nc(sc2COC)[C@H](C(C)C)NC(=O)c2nc1sc2C` [GE2270 A], the “protein biosynthesis compared to control conditions” value is reported as −65%.

Turning to `C=C(NC(=O)c1csc(-c2nc3c(cc2O)-c2nc(cs2)C(=O)N[C@@H]([C@@H](C)O)C(=O)N/C(=C(\C)OC)c2nc(cs2)C(=O)N[C@@H]2c4nc(cs4)C(=O)N[C@@H](COC(=O)c4c5c6c(cccc6n4O)COC(=O)[C@@H](O[C@H]4C[C@](C)(O)[C@H](N(C)C)[C@H](C)O4)[C@H]2OC5)c2nc-3cs2)n1)C(N)=O.O=C(O)C(F)(F)F` [nocathiacin I], the “protein biosynthesis compared to control conditions” value is recorded as −15%.

As for kirromycin, the “protein biosynthesis compared to control conditions” value is “not affected”.
